Values of other authors as cited in US20100173381A1, “CRYSTAL STRUCTURES OF HIV-1 PROTEASE INHIBITORS BOUND TO HIV-1 PROTEASE” (UNIVERSITY OF MASSACHUSETTS, priority 2006, published 2010).

Experiments:
HIV-1 protease = HIV-1 protease (Human immunodeficiency virus type 1 group M subtype B, UniProt P04585)
[1] = system: the virus in cell cultures
[2] = humans
HIV-1 protease mutants = details: M46I, T80I, P81S
drug-resistant HIV-1 = details: versus clinical protease inhibitors APV, LPV, ATV, SQV, IDV, NFV

SMILES	inhibitory properties (HIV-1 protease)	potency against the virus in cell cultures [1]	oral bioavailability [2]	resistance of quadruple-viral mutant (HIV-1 protease mutants; K45R)	resistance of single-, double- or triple-viral mutants (HIV-1 protease mutants; mutants from K45R)	cross-resistance profile (drug-resistant HIV-1)	potency against drug-resistant proteases (drug-resistant proteases)
Nc1cccc(CN2C(=O)N(Cc3cccc(N)c3)[C@H](Cc3ccccc3)[C@H](O)[C@@H](O)[C@H]2Cc2ccccc2)c1 [DMP-450]	excellent inhibitory properties	highly potent	orally bioavailable	–	–	–	–
COC(=O)N[C@H](C(=O)NCCCC[C@@H](CO)N(CC(C)C)S(=O)(=O)c1ccc(N)cc1)C(c1ccccc1)c1ccccc1 [PL-100]	–	–	–	only mild resistance	did not show resistance	favorable cross-resistance profile	highly potent
